Measured values taken from ChEMBL document CHEMBL1150537, “Synthesis of echiguanine analogs and their ribofuranosyl glycosides that inhibit phosphatidylinositol 4-kinase” (Bioorg Med Chem Lett, 1997).
Values after ≈ are worked out from the molar mass of the structure shown.

Each molecule was assayed against T1, Phosphatidylinositol 4-kinase, PI4K (Homo sapiens, UniProt Q9BTU6+Q8TCG2+Q9UBF8+P42356) (assay: Inhibition of Phosphatidylinositol 4-kinase of human epidermoid carcinoma A431 cells). Details: a-431.
Type: cell-based

Row | SMILES | IC50 [µg/mL]
1 | N#CCCNC(=O)c1c[nH]c2nc(N)nc(O)c12 | 0.45 (≈ 1.83 µM)
2 | N=C(N)NCCCNC(=O)c1c[nH]c2nc(N)nc(O)c12 | 0.15 (≈ 0.513 µM)
3 | NC(=O)CCNC(=O)c1c[nH]c2nc(N)nc(O)c12 | 0.02 (≈ 0.0757 µM)
4 | COC(=O)CCNC(=O)c1c[nH]c2nc(N)nc(O)c12 | 0.3 (≈ 1.07 µM)
5 | N=C(N)CCNC(=O)c1cn(C2O[C@H](CO)C(O)[C@H]2O)c2nc(N)nc(O)c12 (single isomer, unassigned) | 100 (≈ 253 µM)
6 | NCCCNC(=O)c1cn(C2O[C@H](CO)C(O)[C@H]2O)c2nc(N)nc(O)c12 (single isomer, unassigned) | > 100
7 | N=C(S)CCNC(=O)c1cn(C2O[C@H](CO)C(O)[C@H]2O)c2nc(N)nc(O)c12 (single isomer, unassigned) | > 100
8 | NC(=O)CCNC(=O)c1cn(C2O[C@H](CO)C(O)[C@H]2O)c2nc(N)nc(O)c12 (single isomer, unassigned) | 2.4 (≈ 6.06 µM)
9 | NC(=O)NCCCNC(=O)c1cn(C2O[C@H](CO)C(O)[C@H]2O)c2nc(N)nc(O)c12 (single isomer, unassigned) | 1 (≈ 2.35 µM)
10 | N=C(N)NCCCNC(=O)c1cn(C2O[C@H](CO)C(O)[C@H]2O)c2nc(N)nc(O)c12 (single isomer, unassigned) | 7.5 (≈ 17.7 µM)
11 | COC(=O)CCNC(=O)c1cn(C2O[C@H](CO)C(O)[C@H]2O)c2nc(N)nc(O)c12 (single isomer, unassigned) | 25 (≈ 60.8 µM)
12 | N#CCCNC(=O)c1cn(C2O[C@H](CO)C(O)[C@H]2O)c2nc(N)nc(O)c12 (single isomer, unassigned) | > 100
13 | NCCCNC(=O)c1c[nH]c2nc(N)nc(O)c12 [ECHIGUANINE B] | 0.18 (≈ 0.719 µM)

These molecules were tested against T1, Phosphatidylinositol 4-kinase, PI4K (assay: Inhibition of Phosphatidylinositol 4-kinase of human epidermoid carcinoma A431 cells (Not prepared)). Details: a-431.
Type: cell-based

Row | SMILES | IC50
14 | NC(=O)NCCCNC(=O)c1c[nH]c2nc(N)nc(O)c12 | Not prepared
15 | N=C(S)CCNC(=O)c1c[nH]c2nc(N)nc(O)c12 | Not prepared
